Columns and labels:
Type in all cases: in vivo
[1] = system: barnyard grass, Echinochloa crusgalli; test: Herbicidal activity, post-emergence soil drench test; conditions: 10 kg/ha soil drench; assessed visually thirteen days after drenching; 0-9 scale, 0 = growth as untreated control, 9 = death
Method: (§1) To evaluate their herbicidal activity, compounds according to the invention were tested using as representative range of plants: maize, Zea mays (Mz); rice, Oryza sativa (R); barnyard grass, Echinochloa crusgalli (BG); oat, Avena sativa (0); linseed, Linum usitatissisum (L); mustard, Sinapsis alba (M); sugar beet, Beta vulgaris (SB) and soya bean, Glycine max (S).
(§2) The tests fall into two categories, pre-emergence and post-emergence. […] The post-emergence tests involved two types of test, viz., soil drench and foliar spray tests. In the soil drench tests the soil in which the seedling plants of the above species were growing was drenched with a liquid formulation containing a compound of the invention, and in the foliar spray tests the seedling plants were sprayed with such a formulation.
(§3) The soil used in the tests was a prepared horticultural loam.
(§4) These acetone solutions were diluted with water and the resulting formulations applied at dosage levels corresponding to 5 kg or 1 kg of active material per hectare in a volume equivalent to 600 litres per hectare in the soil spray and foliar spray test, and at a dosage of level equivalent to 10 kilograms of active material per hectare in a volume equivalent to approximately 3,000 litres per hectare in the soil drench tests.
(§5) In the pre-emexgence tests untreated sown soil and in the post-emergence tests untreated soil bearing seedling plants were used as controls.
(§6) The herbicidal effects of the test compounds were assessed visually twelve days after spraying the foliage and the soil, and thirteen days after drenching the soil and were recorded on a 0-9 scale. A rating 0 indicates growth as untreated control, a rating 9 indicates death. An increase of 1 unit on the linear scale approximates to a 10% increase in the level of effect.

[2] = system: linseed, Linum usitatissisum; test: as above; conditions: 10 kg/ha soil drench; assessed visually thirteen days after drenching; 0-9 scale, 0 = growth as untreated control, 9 = death
Method: as §1, §2, §3, §4, §5, §6

maize, Zea mays [3] = test: as above; conditions: 10 kg/ha soil drench; assessed visually thirteen days after drenching; 0-9 scale, 0 = growth as untreated control, 9 = death
Method: as §1, §2, §3, §4, §5, §6

mustard, Sinapsis alba [4] = test: as above; conditions: 10 kg/ha soil drench; assessed visually thirteen days after drenching; 0-9 scale, 0 = growth as untreated control, 9 = death
Method: as §1, §2, §3, §4, §5, §6

oat, Avena sativa [5] = test: as above; conditions: 10 kg/ha soil drench; assessed visually thirteen days after drenching; 0-9 scale, 0 = growth as untreated control, 9 = death
Method: as §1, §2, §3, §4, §5, §6

rice, Oryza sativa [6] = test: as above; conditions: 10 kg/ha soil drench; assessed visually thirteen days after drenching; 0-9 scale, 0 = growth as untreated control, 9 = death
Method: as §1, §2, §3, §4, §5, §6

soya bean, Glycine max [7] = test: as above; conditions: 10 kg/ha soil drench; assessed visually thirteen days after drenching; 0-9 scale, 0 = growth as untreated control, 9 = death
Method: as §1, §2, §3, §4, §5, §6

[8] = system: sugar beet, Beta vulgaris; test: as above; conditions: 10 kg/ha soil drench; assessed visually thirteen days after drenching; 0-9 scale, 0 = growth as untreated control, 9 = death
Method: as §1, §2, §3, §4, §5, §6

[9] = system: barnyard grass, Echinochloa crusgalli; test: Herbicidal activity, post-emergence foliar spray test; conditions: assessed visually twelve days after spraying, 0-9 scale, 0 = growth as untreated control, 9 = death
Method: as §1, §2, §3, §4, §5, §6

[10] = system: linseed, Linum usitatissisum; test: as above; conditions: assessed visually twelve days after spraying, 0-9 scale, 0 = growth as untreated control, 9 = death
Method: as §1, §2, §3, §4, §5, §6

maize, Zea mays [11] = test: as above; conditions: assessed visually twelve days after spraying, 0-9 scale, 0 = growth as untreated control, 9 = death
Method: as §1, §2, §3, §4, §5, §6

mustard, Sinapsis alba [12] = test: as above; conditions: assessed visually twelve days after spraying, 0-9 scale, 0 = growth as untreated control, 9 = death
Method: as §1, §2, §3, §4, §5, §6

oat, Avena sativa [13] = test: as above; conditions: assessed visually twelve days after spraying, 0-9 scale, 0 = growth as untreated control, 9 = death
Method: as §1, §2, §3, §4, §5, §6

rice, Oryza sativa [14] = test: as above; conditions: assessed visually twelve days after spraying, 0-9 scale, 0 = growth as untreated control, 9 = death
Method: as §1, §2, §3, §4, §5, §6

soya bean, Glycine max [15] = test: as above; conditions: assessed visually twelve days after spraying, 0-9 scale, 0 = growth as untreated control, 9 = death
Method: as §1, §2, §3, §4, §5, §6

[16] = system: sugar beet, Beta vulgaris; test: as above; conditions: assessed visually twelve days after spraying, 0-9 scale, 0 = growth as untreated control, 9 = death
Method: as §1, §2, §3, §4, §5, §6

[17] = system: barnyard grass, Echinochloa crusgalli; test: Herbicidal activity, pre-emergence test (soil spray); conditions: assessed visually twelve days after spraying, 0-9 scale, 0 = growth as untreated control, 9 = death
Method: as §1, §2, §3, §4, §5, §6

[18] = system: linseed, Linum usitatissisum; test: as above; conditions: assessed visually twelve days after spraying, 0-9 scale, 0 = growth as untreated control, 9 = death
Method: as §1, §2, §3, §4, §5, §6

maize, Zea mays [19] = test: as above; conditions: assessed visually twelve days after spraying, 0-9 scale, 0 = growth as untreated control, 9 = death
Method: as §1, §2, §3, §4, §5, §6

mustard, Sinapsis alba [20] = test: as above; conditions: assessed visually twelve days after spraying, 0-9 scale, 0 = growth as untreated control, 9 = death
Method: as §1, §2, §3, §4, §5, §6

oat, Avena sativa [21] = test: as above; conditions: assessed visually twelve days after spraying, 0-9 scale, 0 = growth as untreated control, 9 = death
Method: as §1, §2, §3, §4, §5, §6

rice, Oryza sativa [22] = test: as above; conditions: assessed visually twelve days after spraying, 0-9 scale, 0 = growth as untreated control, 9 = death
Method: as §1, §2, §3, §4, §5, §6

soya bean, Glycine max [23] = test: as above; conditions: assessed visually twelve days after spraying, 0-9 scale, 0 = growth as untreated control, 9 = death
Method: as §1, §2, §3, §4, §5, §6

[24] = system: sugar beet, Beta vulgaris; test: as above; conditions: assessed visually twelve days after spraying, 0-9 scale, 0 = growth as untreated control, 9 = death
Method: as §1, §2, §3, §4, §5, §6

| SMILES | Soil drench 10/kg/ha BG (herbicidal effect rating) [1] | Soil drench 10/kg/ha L (herbicidal effect rating) [2] | Soil drench 10/kg/ha Mz (herbicidal effect rating) (maize, Zea mays [3]) | Soil drench 10/kg/ha M (herbicidal effect rating) (mustard, Sinapsis alba [4]) | Soil drench 10/kg/ha O (herbicidal effect rating) (oat, Avena sativa [5]) | Soil drench 10/kg/ha R (herbicidal effect rating) (rice, Oryza sativa [6]) | Soil drench 10/kg/ha S (herbicidal effect rating) (soya bean, Glycine max [7]) | Soil drench 10/kg/ha SB (herbicidal effect rating) [8] | Foliar spray BG (herbicidal effect rating) ([9]; Dosage 1 kg/ha) | Foliar spray BG (herbicidal effect rating) ([9]; Dosage 5 kg/ha) | Foliar spray L (herbicidal effect rating) ([10]; Dosage 1 kg/ha) | Foliar spray L (herbicidal effect rating) ([10]; Dosage 5 kg/ha) | Foliar spray Mz (herbicidal effect rating) (maize, Zea mays [11]; Dosage 1 kg/ha) | Foliar spray Mz (herbicidal effect rating) (maize, Zea mays [11]; Dosage 5 kg/ha) | Foliar spray M (herbicidal effect rating) (mustard, Sinapsis alba [12]; Dosage 1 kg/ha) | Foliar spray M (herbicidal effect rating) (mustard, Sinapsis alba [12]; Dosage 5 kg/ha) | Foliar spray O (herbicidal effect rating) (oat, Avena sativa [13]; Dosage 1 kg/ha) | Foliar spray O (herbicidal effect rating) (oat, Avena sativa [13]; Dosage 5 kg/ha) | Foliar spray R (herbicidal effect rating) (rice, Oryza sativa [14]; Dosage 1 kg/ha) | Foliar spray R (herbicidal effect rating) (rice, Oryza sativa [14]; Dosage 5 kg/ha) | also measured |
| --- | --- | --- | --- | --- | --- | --- | --- | --- | --- | --- | --- | --- | --- | --- | --- | --- | --- | --- | --- | --- | --- |
| COC(=O)c1cc2cc3c(cc2nc1C1=NC(=O)C(C)(C(C)C)N1)OCO3 (centres unmarked) [Example 1, Methyl-2-(5-i.saprapyl-5-methyl-4-oxo-2-imidazolin-2-yl)-[1,3]-dioxolo[4,5-g] quinoline-3-carboxylate] | 7 | 6 | 6 | 8 | 6 | 7 | 4 | 7 | 4 | 7 | 6 | 7 | 5 | 7 | 5 | 7 | 5 | 6 | 4 | 6 | Foliar spray S (herbicidal effect rating) (soya bean, Glycine max [15]; Dosage 1 kg/ha): 0; Foliar spray S (herbicidal effect rating) (soya bean, Glycine max [15]; Dosage 5 kg/ha): 2; Foliar spray SB (herbicidal effect rating) ([16]; Dosage 1 kg/ha): 6; Foliar spray SB (herbicidal effect rating) ([16]; Dosage 5 kg/ha): 8; Pre-emergence BG (herbicidal effect rating) ([17]; Dosage 1 kg/ha): 5; Pre-emergence BG (herbicidal effect rating) ([17]; Dosage 5 kg/ha): 8; Pre-emergence L (herbicidal effect rating) ([18]; Dosage 1 kg/ha): 6; Pre-emergence L (herbicidal effect rating) ([18]; Dosage 5 kg/ha): 7; Pre-emergence Mz (herbicidal effect rating) (maize, Zea mays [19]; Dosage 1 kg/ha): 5; Pre-emergence Mz (herbicidal effect rating) (maize, Zea mays [19]; Dosage 5 kg/ha): 7; Pre-emergence M (herbicidal effect rating) (mustard, Sinapsis alba [20]; Dosage 1 kg/ha): 4; Pre-emergence M (herbicidal effect rating) (mustard, Sinapsis alba [20]; Dosage 5 kg/ha): 7; Pre-emergence O (herbicidal effect rating) (oat, Avena sativa [21]; Dosage 1 kg/ha): 5; Pre-emergence O (herbicidal effect rating) (oat, Avena sativa [21]; Dosage 5 kg/ha): 7; Pre-emergence R (herbicidal effect rating) (rice, Oryza sativa [22]; Dosage 1 kg/ha): 4; Pre-emergence R (herbicidal effect rating) (rice, Oryza sativa [22]; Dosage 5 kg/ha): 8; Pre-emergence S (herbicidal effect rating) (soya bean, Glycine max [23]; Dosage 1 kg/ha): 0; Pre-emergence S (herbicidal effect rating) (soya bean, Glycine max [23]; Dosage 5 kg/ha): 0; Pre-emergence SB (herbicidal effect rating) ([24]; Dosage 1 kg/ha): 6; Pre-emergence SB (herbicidal effect rating) ([24]; Dosage 5 kg/ha): 6 |
| CC(C)C1(C)NC(c2nc3cc4c(cc3cc2C(=O)[O-])OCO4)=NC1=O.[Na+] (centres unmarked) [Example 4, Sodivmt-2-(5-isopropyl-5-methyl-4-oxo-2-imidazolin-2-yl)-[1,3]-dioxolo[4,5-g] quinoline-3-carboxylic acid (salt)] | 8 | 6 | 5 | 8 | 4 | 5 | 6 | 8 | 7 | 8 | 6 | 6 | 4 | 6 | 8 | 8 | 4 | 4 | 4 | 4 | Foliar spray S (herbicidal effect rating) (soya bean, Glycine max [15]; Dosage 1 kg/ha): 2; Foliar spray S (herbicidal effect rating) (soya bean, Glycine max [15]; Dosage 5 kg/ha): 3; Foliar spray SB (herbicidal effect rating) ([16]; Dosage 1 kg/ha): 7; Foliar spray SB (herbicidal effect rating) ([16]; Dosage 5 kg/ha): 8; Pre-emergence BG (herbicidal effect rating) ([17]; Dosage 1 kg/ha): 8; Pre-emergence BG (herbicidal effect rating) ([17]; Dosage 5 kg/ha): 8; Pre-emergence L (herbicidal effect rating) ([18]; Dosage 1 kg/ha): 8; Pre-emergence L (herbicidal effect rating) ([18]; Dosage 5 kg/ha): 9; Pre-emergence Mz (herbicidal effect rating) (maize, Zea mays [19]; Dosage 1 kg/ha): 8; Pre-emergence Mz (herbicidal effect rating) (maize, Zea mays [19]; Dosage 5 kg/ha): 8; Pre-emergence M (herbicidal effect rating) (mustard, Sinapsis alba [20]; Dosage 1 kg/ha): 7; Pre-emergence M (herbicidal effect rating) (mustard, Sinapsis alba [20]; Dosage 5 kg/ha): 7; Pre-emergence O (herbicidal effect rating) (oat, Avena sativa [21]; Dosage 1 kg/ha): 5; Pre-emergence O (herbicidal effect rating) (oat, Avena sativa [21]; Dosage 5 kg/ha): 6; Pre-emergence R (herbicidal effect rating) (rice, Oryza sativa [22]; Dosage 1 kg/ha): 8; Pre-emergence R (herbicidal effect rating) (rice, Oryza sativa [22]; Dosage 5 kg/ha): 9; Pre-emergence S (herbicidal effect rating) (soya bean, Glycine max [23]; Dosage 1 kg/ha): 2; Pre-emergence S (herbicidal effect rating) (soya bean, Glycine max [23]; Dosage 5 kg/ha): 5; Pre-emergence SB (herbicidal effect rating) ([24]; Dosage 1 kg/ha): 8; Pre-emergence SB (herbicidal effect rating) ([24]; Dosage 5 kg/ha): 8 |
